Non-standard residues stand in square brackets, D forms with d. Residues, ends and D or L forms follow the SMILES beside them. No end group written: not given here. pGlu = O=C1CC[C@@H](C(=O)O)N1

This is an account of results in patent publication US4711952A, “Serum thymic factor peptide analogs and process for the preparation thereof” (SPOFA, spojene podniky pro zdravotnickouvyrobu, priority 1984, dated 1987).

This test concerns Flymphocytes. The experiment in a line: Recovery assay of Flymphocytes (in vitro). It is filed as cell-based. The following applies: positive for immunostimulation and negative for immunosuppression. An excerpt: As is evident from the general formula I in comparison with the above structure of the natural substance, the compounds of the present invention, besides optional shortening at the N-terminus, comprise a C-terminal augmentation predominantly by an additional amino-acid residue or residues bearing an amide moiety.
`C[C@H](NC(=O)[C@@H]1CCC(=O)N1)C(=O)N[C@@H](CCCCN)C(=O)N[C@@H](CO)C(=O)N[C@@H](CCC(N)=O)C(=O)NCC(=O)NCC(=O)N[C@@H](CO)C(=O)N[C@@H](CC(N)=O)C(=O)NCC(N)=O` ([pGlu]AKSQGGSNG-NH2): the “Recovery Assay of Flymbocytes differential count” value came to 6.31%.

As to `C[C@H](NC(=O)[C@@H]1CCC(=O)N1)C(=O)N[C@@H](CCCCN)C(=O)N[C@@H](CO)C(=O)N[C@@H](CCC(N)=O)C(=O)NCC(=O)NCC(=O)N[C@@H](CO)C(=O)N[C@@H](CC(N)=O)C(=O)N[C@@H](Cc1ccccc1)C(N)=O` [p-Glu--D-Gln--E--PheNH2, Pyroglutamyl-alanyl-lysyl-seryl-glutaminyl-glycyl-glycyl-seryl-asparaginyl-phenylalanine amide] ([pGlu]AKSQGGSNF-NH2), the “Recovery Assay of Flymbocytes differential count” value came to 7.54%.

Regarding `NC(=O)CNC(=O)[C@H](CC(N)=O)NC(=O)[C@H](CO)NC(=O)CNC(=O)CNC(=O)[C@@H]1CCC(=O)N1` [p-Glu--E--GlyNH2, Pyroglutamyl-glycyl-glycyl-seryl-asparaginyl-glycine amide] ([pGlu]GGSNG-NH2), the “Recovery Assay of Flymbocytes differential count” value turned out to be 6.35%.

For the compound `NC(=O)C[C@H](NC(=O)[C@H](CO)NC(=O)CNC(=O)CNC(=O)[C@@H]1CCC(=O)N1)C(=O)N[C@@H](Cc1ccccc1)C(N)=O` [p-Glu--E--PheNH2, Pyroglutamyl-glycyl-glycyl-seryl-asparaginyl-phenylalanine amide] ([pGlu]GGSNF-NH2), the “Recovery Assay of Flymbocytes differential count” value came out at 2.89%.

With “AKSQGGSNF-NH2 [D-Gln--E--PheNH2, Alanyl-lysyl-seryl-glutaminyl-glycyl-glycyl-seryl-asparaginyl-phenylalanine amide]”, the “Recovery Assay of Flymbocytes differential count” value was 16.09%.

As to “AKSQGGSNG-NH2 [D-Gln--E--GlyNH2, Alanyl-lysyl-seryl-glutaminyl-glycyl-glycyl-seryl-asparaginyl-glycine amide]”, the “Recovery Assay of Flymbocytes differential count” value was 12.75%.
